Laboratory results as given in patent US6838477B2, “Lactacystin analogs” (President and Fellows of Harvard College, priority 1995, dated 2005).

How the values were obtained:
[1] = target: T1, 20S proteasome chymotrypsin-like activity (Bos taurus, UniProt Q32KL2); assay: Kinetics of inhibition of 20S proteasome chymotrypsin-like activity (Suc-LLVY-AMC); type: biochemical, bovine
T1 construct: from tissue; host or cells: bovine brain
Experimental: (§1) Experiments involving the proteasome were performed as follows: 20S proteasome (˜5 ng/μl) in 10 mM Tris-HCl, pH 7.5, 1 mM EDTA was incubated at 25° C. in the presence of lactacystin or lactacystin analogs in DMSO or MeOH [not exceeding 5% (v/v)]. Aliquots for fluorescence assay were removed at various times following addition of compound and diluted in 10 mM Tris-HCl, pH 7.5, 1 mM EDTA containing fluorogenic peptide substrates (100 μM final). Suc-LLVY-AMC, Cbz-GGR-βNA and […] (AMC=7-amido-4-methylcoumarin; βNA=β-naphthylamide) were used to assay for the chymotrypsin-like, trypsin-like and peptidylglutamyl-peptide hydrolyzing activities, respectively.
(§2) Fluorescent emission at 460 nm with excitation at 380 nm was measured for AMC-containing substrates, and emission at 410 nm with excitation at 335 nm was measured for βNA-containing substrates. The fluorescence assays were conducted at 25° C., each experiment was performed at least three times, and values represent mean±standard deviation.
(§3) The reversibility of the inhibitory effects was assessed by measuring residual peptidase activity after removal of excess inhibitor by extensive serial dilution/ultrafiltration.

[2] = target: T2, 20S proteasome trypsin-like activity (Bos taurus, UniProt Q2TBP0); assay: Kinetics of inhibition of 20S proteasome trypsin-like activity (Cbz-GGR-βNA); type: biochemical, bovine
T2 construct: from tissue; host or cells: bovine brain
Experimental: as §1, §2, §3

Papain = target: T3, Papain (Carica papaya, UniProt P00784); assay: Selectivity of protease inhibition: papain; type: biochemical; details: concentration not given
T3 sequence (P00784 134-345): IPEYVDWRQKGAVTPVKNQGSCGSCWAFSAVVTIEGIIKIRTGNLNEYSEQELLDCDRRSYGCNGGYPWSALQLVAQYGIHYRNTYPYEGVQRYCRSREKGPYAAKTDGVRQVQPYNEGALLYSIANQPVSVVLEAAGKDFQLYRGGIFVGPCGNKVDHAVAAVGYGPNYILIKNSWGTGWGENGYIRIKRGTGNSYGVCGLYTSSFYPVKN

Calpain I = target: T4, Calpain I (Homo sapiens, UniProt P07384); assay: Selectivity of protease inhibition: calpain I; type: biochemical; details: concentration not given
T4 sequence (P07384 1-714): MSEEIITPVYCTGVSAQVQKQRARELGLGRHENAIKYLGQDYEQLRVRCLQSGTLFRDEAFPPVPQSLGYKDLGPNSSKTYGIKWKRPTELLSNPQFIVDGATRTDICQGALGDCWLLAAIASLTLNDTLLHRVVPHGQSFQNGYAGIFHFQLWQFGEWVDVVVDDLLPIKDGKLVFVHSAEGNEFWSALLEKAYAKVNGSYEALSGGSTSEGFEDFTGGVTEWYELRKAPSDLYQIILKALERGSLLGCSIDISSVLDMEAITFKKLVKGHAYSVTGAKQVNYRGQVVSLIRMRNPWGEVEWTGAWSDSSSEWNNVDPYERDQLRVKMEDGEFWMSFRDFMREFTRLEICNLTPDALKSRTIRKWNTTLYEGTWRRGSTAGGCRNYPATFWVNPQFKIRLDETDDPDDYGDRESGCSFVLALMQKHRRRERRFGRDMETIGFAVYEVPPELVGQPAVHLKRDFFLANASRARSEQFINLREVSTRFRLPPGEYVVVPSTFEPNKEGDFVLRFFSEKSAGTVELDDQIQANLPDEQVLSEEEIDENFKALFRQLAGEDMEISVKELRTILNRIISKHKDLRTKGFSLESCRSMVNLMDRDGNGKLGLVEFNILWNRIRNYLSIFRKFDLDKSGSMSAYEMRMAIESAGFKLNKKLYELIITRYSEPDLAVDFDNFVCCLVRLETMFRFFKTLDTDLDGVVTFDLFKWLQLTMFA
T4 sequence (P04632 1-268 partner): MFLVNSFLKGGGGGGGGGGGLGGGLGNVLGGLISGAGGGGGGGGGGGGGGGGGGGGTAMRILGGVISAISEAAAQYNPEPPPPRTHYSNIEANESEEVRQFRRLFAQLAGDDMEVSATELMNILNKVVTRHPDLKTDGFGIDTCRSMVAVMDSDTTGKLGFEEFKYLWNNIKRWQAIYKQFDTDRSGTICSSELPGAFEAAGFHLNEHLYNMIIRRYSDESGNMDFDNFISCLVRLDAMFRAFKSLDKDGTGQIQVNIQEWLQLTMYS

Trypsin = target: T5, Trypsin (Bos taurus, UniProt P00760); assay: Selectivity of protease inhibition: trypsin; type: biochemical; details: concentration not given
T5 construct: gene PRSS1
T5 sequence (P00760 24-246): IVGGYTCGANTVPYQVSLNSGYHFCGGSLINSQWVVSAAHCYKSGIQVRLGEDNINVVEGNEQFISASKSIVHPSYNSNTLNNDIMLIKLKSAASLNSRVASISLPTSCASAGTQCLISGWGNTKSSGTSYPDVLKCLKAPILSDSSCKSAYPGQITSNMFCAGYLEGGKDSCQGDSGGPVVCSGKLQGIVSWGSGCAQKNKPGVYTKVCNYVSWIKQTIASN

Cathepsin B = Cathepsin B (Homo sapiens, UniProt P07858); assay: Selectivity of protease inhibition: cathepsin B; type: biochemical; details: concentration not given
Calpain II = target: T6, Calpain II (Homo sapiens, UniProt P17655); assay: Selectivity of protease inhibition: calpain II; type: biochemical; details: concentration not given
T6 sequence (P17655 1-700): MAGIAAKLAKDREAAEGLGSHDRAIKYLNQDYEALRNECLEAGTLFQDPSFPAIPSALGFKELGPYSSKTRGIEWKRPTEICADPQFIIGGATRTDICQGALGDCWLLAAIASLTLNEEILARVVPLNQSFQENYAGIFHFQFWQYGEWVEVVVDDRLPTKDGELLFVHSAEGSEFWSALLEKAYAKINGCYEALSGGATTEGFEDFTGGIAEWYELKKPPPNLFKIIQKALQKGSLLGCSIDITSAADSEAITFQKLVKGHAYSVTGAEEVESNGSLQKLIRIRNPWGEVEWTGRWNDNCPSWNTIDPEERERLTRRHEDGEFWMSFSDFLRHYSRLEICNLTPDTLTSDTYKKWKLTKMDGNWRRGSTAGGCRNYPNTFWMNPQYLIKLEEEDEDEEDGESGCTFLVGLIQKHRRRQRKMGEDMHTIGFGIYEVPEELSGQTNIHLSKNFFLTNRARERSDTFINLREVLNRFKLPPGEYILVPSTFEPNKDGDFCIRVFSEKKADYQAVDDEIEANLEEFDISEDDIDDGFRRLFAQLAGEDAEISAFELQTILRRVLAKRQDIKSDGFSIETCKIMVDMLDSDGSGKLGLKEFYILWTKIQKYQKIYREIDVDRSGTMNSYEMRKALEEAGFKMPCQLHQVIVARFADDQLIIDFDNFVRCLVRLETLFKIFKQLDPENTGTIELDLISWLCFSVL
T6 sequence (P04632 1-268 partner): T4 sequence (P04632 1-268 partner)

[3] = residual activity after removal of excess inhibitor by serial dilution/ultrafiltration

CC(C)[C@H](O)[C@@]12NC(=O)[C@H](C)[C@@H]1OC2=O [β-Lactone, clasto-lactacystin β-lactone]
κassoc = κobs/[I], Chymotrypsin-like activity (Suc-LLVY-AMC) ([1]; compound 1 μM, 25° C.): 3059 ± 478 s^−1M^−1
chymotrypsin-like activity inhibited faster than by lactacystin ([1]; relative to lactacystin): 15-20 times
reversibility of inhibition of chymotrypsin-like activity [1, 3]: irreversibly
κassoc = κobs/[I], Trypsin-like activity (Cbz-GGR-βNA) ([2]; compound 5 μM, 25° C.): 208 ± 21 s^−1M^−1
trypsin-like activity inhibited faster than by lactacystin ([2]; relative to lactacystin): 15-20 times
reversibility of inhibition of trypsin-like activity [2, 3]: irreversibly
inhibition of papain activity (Papain): do not inhibit
inhibition of calpain I activity (Calpain I): do not inhibit
inhibition of trypsin activity (Trypsin): do not inhibit
inhibition of cathepsin activity (Cathepsin B): do not inhibit
inhibition of calpain II activity (Calpain II): do not inhibit
